{"source": "patent US20080194575A1", "about": "“Treatment for non-alcoholic-steatohepatitis” (priority 2006, published 2008)", "format_in_all_cases": "in vivo, C56BL/6 mice", "key": {"[1]": {"tested_on": "MnSOD", "assay": "MnSOD mRNA expression in liver by real time RT-PCR", "details": "HSD 4 weeks, compound A 30 mg/kg daily subcutaneous, vs vehicle and chow controls (FIG. 5B)", "protocol": "(§1) Animals, feeding and treatments Two groups of 8 week old male C56BL/6 mice were set under a high sucrose containing diet together with 1% Orotic acid (HSD) for 4 weeks (TD 02366, Tekland Mills) (Feldstein et al. J Hepatol, 39:978-983(2003)). All animals were purchased from Jackson Laboratories and were treated and handled following the National Academy of Sciences criteria (NIH publication 86-23 revised 1985). One group of animals received a daily subcutaneous injection of compound A at a concentration of 30 mg/kg (compound A) and the second group received vehicle with the same frequency (Vehicle). Additionally, a third group of mice was fed under a normal chow diet (control).\n(§2) RNA isolation and quantitative Real Time PCR RNA from frozen liver tissue was extracted with PeqGOLD-RNAPure kit (Peqlab). First strand synthesis was performed with Oligo dT primers and reverse transcription with M-MLV Reverse Transcriptase (Invitrogen Corp.) Quantitative Real Time PCR was performed with the AbbyPrism 7300 Real-Time PCR system from Applied Biosystems by using SYBR Green Reagent (Applied biosystems). Real time reactions were performed twice in triplicates. All values were normalized to the level of GAPDH. Primer sequences are detailed in Table 1."}, "[2]": {"tested_on": "CPT-1", "assay": "CPT-1 mRNA expression in liver by real time RT-PCR", "details": "HSD 4 weeks, compound A 30 mg/kg daily subcutaneous, vs vehicle (FIG. 4B)", "protocol": "as §1, §2"}, "[3]": {"assay": "High sucrose diet (HSD) induced obesity in mice: body weight gain and abdominal fat", "details": "HSD 4 weeks, compound A 30 mg/kg daily subcutaneous", "protocol": "as §1"}, "[4]": {"tested_on": "IL-6", "assay": "IL-6 expression in liver by Real Time RT-PCR", "details": "HSD 4 weeks, compound A 30 mg/kg daily subcutaneous, HSD/vehicle vs HSD/compound A (FIG. 3A)", "protocol": "as §1, §2"}, "[5]": {"tested_on": "Acyl-CoA oxidase (ACOX)", "assay": "Acyl-CoA oxidase (ACOX) mRNA expression in liver by real time RT-PCR", "details": "HSD 4 weeks, compound A 30 mg/kg daily subcutaneous, vs vehicle (FIG. 4C)", "protocol": "as §1, §2"}, "[6]": {"tested_on": "NF-κB", "assay": "HSD induced NF-κB activation in liver (I-κBα western blot, p65 immunohistochemistry)", "details": "HSD 4 weeks, compound A 30 mg/kg daily subcutaneous", "protocol": "as §1\n(§3) Histological evaluation Livers from mice were harvested and after fixation with formaldehyde embedded in paraffin for further histological evaluation. Hematoxylin & Eosin staining was performed in liver sections and steatosis was assessed following a semiquantitative scoring system. Oil red 0 staining was performed to evidence the presence of intracellular lipds. Liver fibrosis was determined by Sirius Red which stains collagen fibres. Scoring of fibrosis was performed following the Brunt system. Additionally, immunohistochemistry (IHC) was performed on cryosections for the polyclonal anti-P65 (A) antibody, dilution 1/50 and anti-TNFα antibody, dilution 1/20 (both from Santa Cruz Biotechnology Inc.). […]"}, "[7]": {"tested_on": "PPARα", "assay": "PPARα expression in liver (real time RT-PCR, western blot)", "details": "HSD 4 weeks", "protocol": "as §1\n(§4) Western blot analysis Whole liver protein extracts were obtained by using ice- cold buffer (20 mM Tris pH 7.5, 150 mM NaCl, 1 mM EGTA, 1 mM EDTA, 1% Triton X-100, 2.5 mM sodium pyrophosphate and cocktail of protease inhibitors). […]\n(§5) RNA isolation and quantitative Real Time PCR RNA from frozen liver tissue was extracted with PeqGOLD-RNAPure kit (Peqlab). First strand synthesis was performed with Oligo dT primers and reverse transcription with M-MLV Reverse Transcriptase (Invitrogen Corp.) Quantitative Real Time PCR was performed with the AbbyPrism 7300 Real-Time PCR system from Applied Biosystems by using SYBR Green Reagent (Applied biosystems). […]"}, "[8]": {"tested_on": "Cytochrome P450 2E1 (CYP2E1)", "assay": "CYP2E1 mRNA expression in liver by real time RT-PCR", "details": "HSD 4 weeks, compound A 30 mg/kg daily subcutaneous (FIG. 5A)", "protocol": "as §1, §2"}, "[9]": {"tested_on": "fatty acid translocase/CD36", "assay": "Fatty acid translocase/CD36 gene expression in liver by real time RT-PCR", "details": "HSD 4 weeks, compound A 30 mg/kg daily subcutaneous (FIG. 4E)", "protocol": "as §1, §2"}, "[10]": {"tested_on": "adiponectin", "assay": "Serum and liver adiponectin expression by ELISA", "details": "after 4 weeks of HSD, compound A 30 mg/kg daily subcutaneous", "protocol": "as §1\n(§6) Serum analysis Blood was taken from mice after fasting and glucose levels were measured with Ascensia Elite sensor (Bayer). Serum Insulin (Linco Research) and Adiponectin (R&D systems) levels were quantified by ELISA."}, "[11]": {"tested_on": "hepatocyte apoptosis", "assay": "TUNEL assay on frozen liver sections (hepatocyte apoptosis)", "details": "HSD 4 weeks, compound A 30 mg/kg daily subcutaneous", "protocol": "as §1\n(§7) Detection of apoptosis Apoptotic cell death was determined in liver tissue by using two difference strategies. Caspase-3 activity was analysed in whole liver extracts. Proteins were extracted with the lysis buffer containing 1M Hepes, 10% CHAPS, 0.5 EDTA, 1 m DTT and 0.1 M pefa-block and further incubated with the fluorescent substrate Ac-DEVD-AMC (Biomol). The enzymatic activity was then measured at λ. excitation 390 nm and λ emission 510 nm and the result was corrected with the protein concentration. Additionally, we performed a TUNEL assay on frozen liver sections using the “In situ cell death detection Kit, POD” (Roche Diagnostics Corp.) following manufacturer's instructions."}, "[12]": {"tested_on": "PPARγ", "assay": "PPARγ expression in liver on the mRNA and protein level", "details": "HSD 4 weeks", "protocol": "as §1, §4, §5"}, "[13]": {"tested_on": "Caspase-3", "assay": "Caspase-3 activity in whole liver extracts (Ac-DEVD-AMC)", "details": "HSD 4 weeks, compound A 30 mg/kg daily subcutaneous (FIG. 6A)", "protocol": "as §1, §7"}, "[14]": {"tested_on": "TNF", "assay": "TNF expression in liver by Real Time RT-PCR", "details": "HSD 4 weeks, compound A 30 mg/kg daily subcutaneous, HSD/vehicle vs HSD/compound A (FIG. 3B)", "protocol": "as §1, §2"}, "[15]": {"tested_on": "HSD induced liver fibrosis", "assay": "Liver fibrosis by Sirius red staining, Brunt score", "details": "HSD 4 weeks", "protocol": "as §1, §3"}, "[16]": {"assay": "Serum analysis after fasting in HSD fed mice: blood glucose, serum insulin (insulin resistance)", "details": "HSD 4 weeks, compound A 30 mg/kg daily subcutaneous", "protocol": "as §1, §6"}, "[17]": {"tested_on": "HSD induced hepatic steatosis", "assay": "Histological evaluation of HSD induced hepatic steatosis (H&E semiquantitative score, Oil-Red-O staining)", "details": "HSD 4 weeks", "protocol": "as §1, §3"}, "[18]": {"tested_on": "Catalase", "assay": "Catalase mRNA expression in liver by real time RT-PCR", "details": "HSD 4 weeks, compound A 30 mg/kg daily subcutaneous, vs vehicle and chow controls", "protocol": "as §1, §2"}, "[19]": {"details": "compound A 30 mg/kg daily subcutaneous, vs HSD/vehicle"}}}
{"smiles": "CC(=O)N1CCN(C(=O)c2ccc(Nc3nccc(-c4ccc(Cl)cc4)n3)cc2)CC1", "note": "[compound A, 1-(4-{4-[4-(4-Chloro-phenyl)-pyrimidin-2-ylamino]-benzoyl}-piperazin-1-yl)-ethanone]", "values": [{"measurement": "MnSOD mRNA expression", "setting": "[1]", "value": "significantly higher in compound A treated animals compared to vehicle treated mice and chow controls"}, {"measurement": "CPT-1 mRNA expression", "setting": "[2]", "value": "up-regulated in livers from mice that received the compound A compared to vehicle treated animals"}, {"measurement": "fat accumulation in the abdominal cavity", "setting": "[3]; macroscopical, vs vehicle and chow control", "value": "less amount of fat that was not significantly different compared to control chow mice"}, {"measurement": "body weight gain", "setting": "[3]; vs HSD/vehicle (FIG. 1A)", "value": "significant weight gain was observed in vehicle treated mice after 4 weeks of HSD feeding compared to compound A treated mice"}, {"measurement": "IL-6 mRNA expression", "setting": "[4]", "value": "upregulation of IL-6 and TNF mRNA expression was found compared to the HSD/compound A"}, {"measurement": "ACOX mRNA expression", "setting": "[5]", "value": "up-regulated in livers from mice that received the compound A compared to vehicle treated animals"}, {"measurement": "I-κBα levels, western blot of whole liver extracts", "setting": "[6]; lower levels in HSD/vehicle", "value": "I-κBα was clearly present in HSD/compound A"}, {"measurement": "NF-κB activation, p65 immunohistochemistry on liver sections", "setting": "[6]; strong activation in HSD/vehicle", "value": "stainings were practically negative in HSD/compound A"}, {"measurement": "PPARα protein, western blot", "setting": "[7]; [19]", "value": "higher presence of PPARα in livers from HSD/compound A mice than in HSD/vehicle animals"}, {"measurement": "PPARα mRNA expression", "setting": "[7]; real time RT-PCR, compound A 30 mg/kg daily subcutaneous (FIG. 4A)", "value": "significantly higher expression in liver from HSD fed mice treated with compound A"}, {"measurement": "CYP2E1 mRNA expression", "setting": "[8]", "value": "reduced HSD induced upregulation of CYP2E1 and its expression was not significantly different than the chow control group"}, {"measurement": "CD36 gene expression", "setting": "[9]", "value": "upregulated in HSD/compound A mice"}, {"measurement": "adiponectin expression in serum", "setting": "[10]; vs chow controls (FIG. 3C)", "value": "no significant change in adiponectin expression"}, {"measurement": "adiponectin expression in liver", "setting": "[10]; vs chow controls (FIG. 3D)", "value": "no significant change in adiponectin expression"}, {"measurement": "TUNEL-positive cells", "setting": "[11]", "value": "increase in TUNEL-positive cells, which could be blocked using compound A"}, {"measurement": "PPARγ mRNA expression", "setting": "[12]; compound A 30 mg/kg daily subcutaneous (FIG. 4D)", "value": "upregulated in livers derived from these animals"}, {"measurement": "PPARγ protein expression, western blot", "setting": "[12]; [19]", "value": "more pronounced presence in compound A mice"}, {"measurement": "caspase 3 activity", "setting": "[13]", "value": "strongly reduced caspase 3 activity to a level as found in chow control mice"}, {"measurement": "TNF mRNA expression", "setting": "[14]", "value": "upregulation of IL-6 and TNF mRNA expression was found compared to the HSD/compound A"}, {"measurement": "fibrosis score according to Brunt score", "setting": "[15]; compound A 30 mg/kg daily subcutaneous, HSD/vehicle score 1.6", "value": "virtually zero"}, {"measurement": "liver collagen expression (Sirius red staining)", "setting": "[15]; liver sections, compound A 30 mg/kg daily subcutaneous (FIG. 6B)", "value": "no significant degree of collagen expression could be detected"}, {"measurement": "serum insulin levels", "setting": "[16]; ELISA, vs HSD/vehicle (FIG. 1C)", "value": "roughly significantly less blood insulin that HSD/vehicle treated animals (p=0.06)"}, {"measurement": "blood glucose levels", "setting": "[16]; fasted, HSD/vehicle vs HSD/compound A (FIG. 1B)", "value": "blood glucose levels were significantly higher in this group compared to animals treated with either HSD/compound A"}, {"measurement": "fat deposits in liver (Oil-Red-O staining)", "setting": "[17]; compound A 30 mg/kg daily subcutaneous", "value": "only minor microvesicular fat dropples could be observed in some of the HSD/compound A mice analysed"}, {"measurement": "liver histology / steatosis (H&E staining)", "setting": "[17]; compound A 30 mg/kg daily subcutaneous (FIG. 2)", "value": "liver histology similar to chow control animals with no clear evidence of fat accumulation"}, {"measurement": "Catalase mRNA expression", "setting": "[18]", "value": "significantly higher in compound A treated animals compared to vehicle treated mice and chow controls"}]}
